As a reminder, the IC50 is the concentration needed to halve the response being measured. A low value points to higher potency.

Assay [1] concerns WT SV40 MEF (wild-type immortalized mouse embryonic fibroblast). The assay is described as follows: Cytotoxic activity in wild-type fibroblasts. In kind it is cell-based. The following applies: WT SV40 MEF cell line. From the text:
(§1) MCF7 (human breast carcinoma), HCT116 (human colon carcinoma), HepG2 (human hepatocellular carcinoma), SCC-9 (human oral squamous cell carcinoma), HSC-3 (human oral squamous cell carcinoma), HL-60 (human promyelocytic leukemia), K-562 (human chronic myelogenous leukemia), B16-F10 (murine melanoma), MRC-5 (human lung fibroblast), WT SV40 MEF (wild-type immortalized mouse embryonic fibroblast), and BAD KO SV40 MEF (BAD gene knockout immortalized mouse embryonic fibroblast) cell lines were obtained from the American Type Culture Collection (ATCC, Manassas, VA, USA). Cells were cultured in complete medium with appropriate supplements as recommended by ATCC. All cell lines were tested for mycoplasma using the Mycoplasma Stain Kit (Sigma-Aldrich) to validate the use of cells free from contamination. Primary cell culture of peripheral blood mononuclear cells (PBMC) was obtained by standard Ficoll density protocol. The Research Ethics Committee of the Oswaldo Cruz Foundation (Salvador, BA, Brazil) approved the experimental protocol (number 031019/2013). Cell viability was examined using trypan blue exclusion assay for all experiments.
(§2) Cell viability was quantified using the alamarBlue assay according to Ahmed et al.. Cells were inserted in 96-well plates for all experiments (7 × 10^4 cells/mL for adherent cells or 3 × 10^5 cells/mL for suspended cells in 100 μL of medium). After 24 h, xylopine was dissolved in dimethyl sulfoxide (DMSO) and added to each well and incubated for 72 h. […] Four (for cell lines) or 24 h (for PBMCs) before the end of incubation, 20 μL of a stock solution (0.312 mg/mL) of the alamarBlue (resazurin, Sigma-Aldrich Co., Saint Louis, MO, USA) was added to each well. Absorbance at 570 nm and 600 nm was measured using the SpectraMax 190 Microplate Reader (Molecular Devices, Sunnyvale, CA, USA), and the drug effect was quantified as the percentage of control absorbance.

Assay [2] relates to BAD KO SV40 MEF (BAD gene knockout immortalized mouse embryonic fibroblast). The assay is described as follows: Cytotoxic activity in BAD gene knockout fibroblasts. Conditions: BAD KO SV40 MEF cell line. In kind it is cell-based.
From the text: as §1, §2

Assay [3] deals with B16-F10 (murine melanoma). Put plainly: Cytotoxic activity, alamarBlue assay, 72 h. Format: cell-based. The following applies: for IC50: B16-F10, alamarBlue, 72 h.
From the text: as §1, §2
(Resazurin is reduced to fluorescent resorufin, in cell work by metabolically active cells.)

Assay [4] relates to K562 (human chronic myelogenous leukemia). Put plainly: Cytotoxic activity, alamarBlue assay, 72 h. The following applies: for IC50: K562, alamarBlue, 72 h. In kind it is cell-based.
From the text: as §1, §2

Assay [5] deals with MCF7 (human breast carcinoma). The assay is described as follows: Cytotoxic activity, alamarBlue assay, 72 h. In kind it is cell-based. Conditions: for IC50: MCF7, alamarBlue, 72 h.
From the text: as §1, §2

Assay [6] relates to HCT116 (human colon carcinoma). The assay is described as follows: Cytotoxic activity, alamarBlue assay, 72 h. Format: cell-based. The following applies: for IC50: HCT116, alamarBlue, 72 h.
From the text: as §1, §2

Assay [7] has as its system HL-60 (human promyelocytic leukemia). The assay is described as follows: Cytotoxic activity, alamarBlue assay, 72 h. In kind it is cell-based. The following applies: for IC50: HL-60, alamarBlue, 72 h.
From the text: as §1, §2

In assay [8] the test system is HepG2 (human hepatocellular carcinoma). Put plainly: Cytotoxic activity, alamarBlue assay, 72 h. In kind it is cell-based. The following applies: for IC50: HepG2, alamarBlue, 72 h.
From the text: as §1, §2

The test system of assay [9] is HSC3 (human oral squamous cell carcinoma). Put plainly: Cytotoxic activity, alamarBlue assay, 72 h. Format: cell-based. Conditions: for IC50: HSC3, alamarBlue, 72 h.
From the text: as §1, §2

In assay [10] the test system is SCC9 (human oral squamous cell carcinoma). Put plainly: Cytotoxic activity, alamarBlue assay, 72 h. In kind it is cell-based.
From the text: as §1, §2

For a further assay, the system named is calf thymus DNA (ctDNA). Put plainly: DNA intercalation assay (ethidium bromide displacement). In kind it is binding. Conditions: doxorubicin 10 μM, data not shown. As to the method: DNA intercalation was assessed by examining the ability of xylopine to displace ethidium bromide from calf thymus DNA (ctDNA, Sigma-Aldrich Co.). The assay was conducted in 96-well plates and contained 15 μg/mL ctDNA, 1.5 μM ethidium bromide, and 10 or 20 μM xylopine in 100 μL saline solution. […] Fluorescence was measured using excitation and emission wavelengths of 320 and 600 nm, respectively.

Assay [11] deals with HCT116 cells. In kind it is cell-based, human. Conditions: for cell cycle block: OXA 2.5 μM. As to the method: Cells were harvested in a permeabilization solution containing 0.1% Triton X-100 (Sigma Chemical Co., St Louis, MO, USA), 2 μg/mL propidium iodide (Sigma Chemical Co.), 0.1% sodium citrate, and 100 μg/mL RNAse (Sigma Chemical Co.) and incubated in the dark for 15 min at room temperature. Finally, cell fluorescence was measured by flow cytometry on a BD LSRFortessa cytometer using the BD FACSDiva software (BD Biosciences) and FlowJo software 10 (FlowJo, LCC, Ashland, OR, USA).

Assay [12] concerns PBMC (human peripheral blood mononuclear cells). Put plainly: Cytotoxic activity, alamarBlue assay, 72 h (noncancer cells). In kind it is cell-based.
From the text: as §1, §2

The test system of assay [13] is MRC5 (human lung fibroblast). The assay is described as above. In kind it is cell-based.
From the text: as §1, §2

Assay [14] has as its system HCT116 cells. The assay is described as follows: Morphological analysis (May-Grünwald-Giemsa). Format: cell-based, human. The following applies: 24 and 48 h, DOX 1 μM, OXA 2.5 μM. As to the method: To evaluate alterations in morphology, cells were cultured under coverslip and stained with May-Grünwald-Giemsa. Morphological changes were examined by light microscopy using Image-Pro software.

Assay [15] has as its system cancer multicellular spheroids formed from HCT116 cells. The assay is described as follows: 3D multicellular spheroids culture, alamarBlue assay, 72 h. Format: cell-based, human. The following applies: 3D spheroids of HCT116, alamarBlue, 72 h. On the procedure: HCT116 cells were cultivated in three-dimensional (3D) multicellular spheroids. Briefly, 100 μL of a solution of cells (0.5 × 10^6 cells/mL) was inserted in 96-well plates with a cell-repellent surface (Greiner Bio-One, Kremsmünster, Austria) and cultured in complete medium plus 3% Matrigel (BD Biosciences, San Jose, CA, USA). Spheroids with stable structures had formed after three days. Then, the spheroids were exposed to a range of drug concentrations for 72 h, after which the cell viability was quantified by alamarBlue assay as described above.

Assay [16] has as its system HCT116 cells. The assay is described as follows: Cell viability by trypan blue exclusion assay. Conditions: HCT116, trypan blue, DOX 1 μM, OXA 2.5 μM, 24 and 48 h. Format: cell-based, human.
From the text: as §1

[17] abbreviates: HCT116, DOX 1 μM, 24 h incubation.
Setting [18] is: HCT116, DOX 1 μM, 48 h incubation.
[19] abbreviates: HCT116, OXA 2.5 μM, 24 h incubation.
Setting [20] is: HCT116, OXA 2.5 μM, 48 h incubation.

Read-outs that look alike come from different tables or passages of the source.

Consider `O=c1[nH]cc(F)c(=O)[nH]1` [5-FU, 5-fluorouracil], for which the values for the IC50 in [1] and in assay [2] were 1700 nM and 7300 nM, respectively.
On to `COc1cccc2c1C(=O)c1c(O)c3c(c(O)c1C2=O)C[C@@](O)(C(=O)CO)C[C@@H]3O[C@H]1C[C@H](N)[C@H](O)[C@H](C)O1` [DOX, doxorubicin], for which the IC50 worked out at 30 nM in assay [1]; 400 nM in assay [2]; 30 nM in assay [3] (Mus musculus); 300 nM in assay [4] (Homo sapiens); 1100 nM in assay [5] (Homo sapiens); 100 nM in assay [6] (Homo sapiens, HCT-116). The IC50 in [7] (Homo sapiens) was found to be 300 nM; in assay [8] (Homo sapiens) it was 100 nM; in assay [9] (Homo sapiens, HSC-3), 300 nM; in assay [10] (Homo sapiens, SCC-9, SCC9, alamarBlue, 72 h), 500 nM; in assay [12] (Homo sapiens) it was 5200 nM; in [13] (Homo sapiens), 1500 nM. The compound also yielded an IC50 in [15] (Homo sapiens, HCT-116) of 4.5 µM. In addition, the Selectivity index is on record as 50 in assay [3] (IC50(MRC5)/IC50(B16-F10)); 173.3 in [3] (IC50(PBMC)/IC50(B16-F10)); 5 in assay [4] (IC50(MRC5)/IC50(K-562)); 17.3 in assay [4] (IC50(PBMC)/IC50(K-562)); 1.4 in [5] (IC50(MRC5)/IC50(MCF7)); 4.7 in assay [5] (IC50(PBMC)/IC50(MCF7)). Moreover, the Selectivity index in assay [6] (IC50(MRC5)/IC50(HCT116)) is 15; in assay [6] (IC50(PBMC)/IC50(HCT116)) it was 52; in assay [7] (IC50(MRC5)/IC50(HL-60)) it was 5; in [7] (IC50(PBMC)/IC50(HL-60)), 17.3; in assay [8] (IC50(MRC5)/IC50(HepG2)), 15; in assay [8] (IC50(PBMC)/IC50(HepG2)) it was 52. In addition, the Selectivity index was found to be 5 in assay [9] (IC50(MRC5)/IC50(HSC-3)), 17.3 in assay [9] (IC50(PBMC)/IC50(HSC-3)) and 3 in [10] (IC50(MRC5)/IC50(SCC-9)). Further, the “displacement of ethidium bromide from ctDNA (fluorescence intensity)” value in the assay on calf thymus DNA (ctDNA) is reported as “significantly reduced the fluorescence intensity”. Moreover, the entries for the “DNA content (%) G0/G1” value in the assay on HCT116 cells [11] (setting [17]) and in the assay with HCT116 cells [11] (setting [18]) were 28.0 ± 6.3% and 22.5 ± 4.0^∗ %, respectively. In addition, the “DNA content (%) G2/M” value in the assay on HCT116 cells [11] (setting [17]) is reported as 44.1 ± 3.4^∗ %; with HCT116 cells [11] (setting [18]) it was 44.2 ± 4.4^∗ %. The figures for the “DNA content (%) S” value in the assay on HCT116 cells [11] (setting [17]) and with HCT116 cells [11] (setting [18]) were 10.0 ± 2.5% and 14.9 ± 2.5%, respectively. The “DNA content (%) Sub-G0/G1” value in the assay with HCT116 cells [11] (setting [17]) amounted to 9.7 ± 2.5%; with HCT116 cells [11] (setting [18]), 18.3 ± 2.5%. Also, the cell cycle block result in the assay with HCT116 cells [11] (HCT116, DOX 1 μM) is reported as “caused cell cycle block at the phase G2/M”. For the same compound, the cell morphology entry in the assay with HCT116 cells [14] is “cell shrinkage, chromatin condensation, and nuclear fragmentation”. Moreover, the “number of viable cells” value with HCT116 cells [16] is on record as “reduced the number of viable cells”.
On to `O=C1[O][Pt]2([NH][C@@H]3CCCC[C@H]3[NH]2)[O]C1=O` [OXA, oxaliplatin, reference compound], for which the IC50 amounted to 100 nM in assay [3]; 900 nM in assay [4]; 5900 nM in assay [5]; 4100 nM in [6]; 400 nM in [7]; 1000 nM in assay [8]. For the same compound, the half-inhibitory concentration (IC50) turned out to be 3300 nM in assay [9], 14900 nM in [12], 1500 nM in assay [13] and 6 µM in assay [15]. In the assay on HCT116 cells [11] (HCT116, DOX 1 μM), the cell cycle block entry is “caused cell cycle block at the phase G2/M”. In addition, the “DNA content (%) G0/G1” value with HCT116 cells [11] (setting [19]) was found to be 32.4 ± 3.7%; with HCT116 cells [11] (setting [20]), 36.2 ± 2.6%. Further, the “DNA content (%) G2/M” value is 39.9 ± 1.5% in the assay with HCT116 cells [11] (setting [19]) and 32.2 ± 4.4% in the assay on HCT116 cells [11] (setting [20]). The “DNA content (%) S” value was 13.5 ± 3.1% with HCT116 cells [11] (setting [19]) and 7.6 ± 0.4% with HCT116 cells [11] (setting [20]). The results for the “DNA content (%) Sub-G0/G1” value in the assay with HCT116 cells [11] (setting [19]) and in the assay on HCT116 cells [11] (setting [20]) were 8.8 ± 3.5% and 17.7 ± 1.9%, respectively. Further, the cell morphology result in the assay with HCT116 cells [14] is “cell shrinkage, chromatin condensation, and nuclear fragmentation”. Further, the “number of viable cells” value in the assay with HCT116 cells [16] is “reduced the number of viable cells”.

The values above are taken from PMC5736936, “Xylopine Induces Oxidative Stress and Causes G2/M Phase Arrest, Triggering Caspase-Mediated Apoptosis by p53-Independent Pathway in HCT116 Cells” (Oxidative Medicine and Cellular Longevity, 2017).
